# Measurements: patent US5696140A, “N-cyano-N'-pyridylguanidines as serotonin antagonists” (Leo Pharmaceutical Products Ltd., priority 1992, dated 1997)
# What was measured:
# [1] = tested on: human small cell lung carcinoma (NYH); test: inhibition of tumour cell proliferation in vitro, NYH; assay type: cell-based
# [2] = tested on: human breast cancer (MCF-7); test: inhibition of tumour cell proliferation in vitro, MCF-7; assay type: cell-based; settings: MCF7
# Yoshida sarcoma cells [3] = test: inhibition of Yoshida sarcoma cell proliferation in vitro ([^3 H]thymidine incorporation, 24 h); assay type: cell-based; settings: Rattus norvegicus, read-out: Inhibition of tumour cell proliferation IC50
# Protocol: (§1) The inhibition of tumour cell proliferation was studied using Yoshida sarcoma cells, originally derived from rat hepatic tumours induced by the carcinogen o-aminoazotoluene. The cells were cultured in vitro for 24 hours in the presence of the compound under investigation. DNA synthesis was measured by incorporation of [^3 H]thymidine, and the median inhibitory concentrations (IC50) of the compounds were calculated. The cytotoxicity of the compounds in normal lymphocytes was assessed by the dye exclusion method and expressed as the concentrations resulting in 50% viability (VC50).
# [4] = cytotoxicity in normal lymphocytes, dye exclusion method; assay type: cell-based; settings: concentration resulting in 50% viability, read-out: Effect on viability of normal cells VC50
# Protocol: as §1
# Yoshida sarcoma cells [5] = test: survival time of Yoshida tumour-bearing rats (LEW/Mol inbred female rats, oral); assay type: in vivo, rat; settings: untreated 7.5 days
# Protocol: The prolongation of survival time of tumour-bearing rats was studied in LEW/Mol inbred female rats inoculated with Yoshida sarcoma cells (identical to the cells described above) in a number of 2×10^7 cells. Tumour-bearing rats were dosed orally once daily from day 3 after the transfer of tumour cells and until death or until the body-weights had increased by 10% as a consequence of tumour proliferation. The time for death of 50% of the animals was calculated by linear regression analysis.
# [6] = tested on: human small cell lung carcinoma (NYH); test: therapeutic antitumour effect in nude mice carrying a human small cell lung carcinoma (NYH); assay type: in vivo, human tumour in nude mice
# Protocol: In addition the antitumour effect of the compounds of the present invention was determined in nude mice carrying a human small cell lung carcinoma (NYH).
# Nude mice were inoculated subcutaneously with a 0.2 ml NYH cell suspension (5×10^7 cells/ml). Two weeks after inoculum animals were divided in treatment and control groups. All mice were dosed p.o. once daily according to group from day 14 to 28.
structure (smiles),measurement,setting,value
"COc1ccccc1OCCCCCCNC(=NC#N)Nc1ccncc1 [Example No. 53, N-Cyano-N'-(6-o-methoxyphenoxyhexyl)-N""-4-pyridylquanidine]",IC50,[1],0.52 nM
same,IC50,[2],0.74 nM
"N#CN=C(NCCCOc1ccccc1)Nc1ccncc1 [Example No. 5, N-Cyano-N'-(3-phenoxypropyl)-N""-4-pyridylquanidine]",IC50,Yoshida sarcoma cells [3],3300 nM
same,CC50,[4],> 100000 nM
same,Time to 50% of animals dead of cancer,Yoshida sarcoma cells [5]; 10 mg/kg p.o. once daily,12.0 days
same,Time to 50% of animals dead of cancer,Yoshida sarcoma cells [5]; 20 mg/kg p.o. once daily,15.5 days
same,Time to 50% of animals dead of cancer,Yoshida sarcoma cells [5]; 50 mg/kg p.o. once daily,a (No rats had died on day 14. Calculation of 50% dead not possible.)
same,Time to 50% of animals dead of cancer,Yoshida sarcoma cells [5]; 100 mg/kg p.o. once daily,a (No rats had died on day 14. Calculation of 50% dead not possible.)
"N#CNC(=NCCCCCCOc1cc(Cl)c(Cl)cc1Cl)Nc1ccncc1 [Example No. 52, N-Cyano-N'-4-pyridyl-N""-(6-(2,4,5-trichlorophenoxy)hexyl)guanidine]",IC50,[1],1.4 nM
same,IC50,[2],4.3 nM
"N#CN=C(NCCCCCOc1ccccc1)Nc1ccncc1 [Example No. 18, N-Cyano-N'-(5-phenoxypentyl)-N""-4-pyridylquanidine]",IC50,Yoshida sarcoma cells [3],750 nM
same,CC50,[4],> 100000 nM
same,Time to 50% of animals dead of cancer,Yoshida sarcoma cells [5]; 20 mg/kg p.o. once daily,11.0 days
"N#CNC(=Nc1ccncc1)NCCCCCCCOc1ccccc1 [Example No. 33, N-Cyano-N'-(7-phenoxyheptyl)-N""-4-pyridylguanidine]",IC50,[1],0.58 nM
same,IC50,[2],6.2 nM
"N#CN=C(NCCCCCCOc1ccc(Cl)cc1)Nc1ccncc1 [Example No. 43, N-(6-p-Chlorophenoxyhexyl)-N'-cyano-N""-4-pyridylquanidine]",IC50,[1],1.9 nM
same,IC50,[2],21 nM
same,tumour areas (range),"[6]; 25 mg/kg p.o. once daily day 14 to 28, day 11 (before dosing)",12-36 mm^2
same,tumour areas (range),"[6]; 25 mg/kg p.o. once daily day 14 to 28, day 14",23-58 mm^2
same,tumour areas (range),"[6]; 25 mg/kg p.o. once daily day 14 to 28, day 18, p < 0.05 vs untreated or vehicle",12-59 mm^2
same,tumour areas (range),"[6]; 25 mg/kg p.o. once daily day 14 to 28, day 21, p < 0.05 vs untreated or vehicle",11-18 mm^2
same,tumour areas (range),"[6]; 25 mg/kg p.o. once daily day 14 to 28, day 25, p < 0.05 vs untreated or vehicle",4-14 mm^2
same,tumour areas (range),"[6]; 25 mg/kg p.o. once daily day 14 to 28, day 28, p < 0.05 vs untreated or vehicle",0--0 mm^2
same,Number of tumours,"[6]; 25 mg/kg p.o., day 11 (before dosing)",6
same,Number of tumours,"[6]; 25 mg/kg p.o., day 14",8
same,Number of tumours,"[6]; 25 mg/kg p.o., day 18",8
same,Number of tumours,"[6]; 25 mg/kg p.o., day 21",5
same,Number of tumours,"[6]; 25 mg/kg p.o., day 25",3
same,Number of tumours,"[6]; 25 mg/kg p.o., day 28",0
same,tumour areas (range),"[6]; 50 mg/kg p.o. once daily day 14 to 28, day 11 (before dosing)",17-64 mm^2
same,tumour areas (range),"[6]; 50 mg/kg p.o. once daily day 14 to 28, day 14",16-131 mm^2
same,tumour areas (range),"[6]; 50 mg/kg p.o. once daily day 14 to 28, day 18, p < 0.05 vs untreated or vehicle",8-109 mm^2
same,tumour areas (range),"[6]; 50 mg/kg p.o. once daily day 14 to 28, day 21, p < 0.05 vs untreated or vehicle",6-40 mm^2
same,tumour areas (range),"[6]; 50 mg/kg p.o. once daily day 14 to 28, day 25, p < 0.05 vs untreated or vehicle",3-27 mm^2
same,tumour areas (range),"[6]; 50 mg/kg p.o. once daily day 14 to 28, day 28, p < 0.05 vs untreated or vehicle",0--0 mm^2
same,Number of tumours,"[6]; 50 mg/kg p.o., day 11 (before dosing)",6
same,Number of tumours,"[6]; 50 mg/kg p.o., day 14",10
same,Number of tumours,"[6]; 50 mg/kg p.o., day 18",10
same,Number of tumours,"[6]; 50 mg/kg p.o., day 21",5
same,Number of tumours,"[6]; 50 mg/kg p.o., day 25",5
same,Number of tumours,"[6]; 50 mg/kg p.o., day 28",0
"N#CN=C(NCCCCOc1ccccc1)Nc1ccncc1 [Example No. 14, N-Cyano-N'-(4-phenoxybutyl)-N""-4-pyridylquanidine]",IC50,Yoshida sarcoma cells [3],170 nM
same,CC50,[4],100000 nM
same,Time to 50% of animals dead of cancer,Yoshida sarcoma cells [5]; 20 mg/kg p.o. once daily,10.8 days
"O=P1(N(CCCl)CCCl)NCCCO1 (stereo not drawn) [Cyclophosphamide, reference compound]",Time to 50% of animals dead of cancer,Yoshida sarcoma cells [5]; 0.3 mg/kg p.o. once daily,19.1 days
"Sc1ncnc2nc[nH]c12 [6-Mercaptopurine, reference compound]",Time to 50% of animals dead of cancer,Yoshida sarcoma cells [5]; 10 mg/kg p.o. once daily,12.2 days
"N#CN=C(NCCCCCCOc1ccccc1Cl)Nc1ccncc1 [Example No. 54, N-(6-o-Chlorophenoxyhexyl)-N'-cyano-N""-4-pyridylquanidine]",IC50,[1],0.59 nM
same,IC50,[2],1.4 nM
